Here are results for 56 compounds from US20220339260A1, “METHOD FOR PRODUCING INSULIN-PRODUCING CELL USING DIHYDROINDOLIZINONE DERIVATIVES” (TOKYO INSTITUTE OF TECHNOLOGY, priority 2019, published 2022).

Each structure is given as a SMILES string.

The experiment concerns human iPS cell Toe strain. The experiment is described as follows: Effect to promote differentiation from human iPS cells into insulin-producing cells (insulin-positive cell rate, Reference Example 1). The experiment is classed as cell-based. Set-up: key to Activity: the sum of activity values at the two concentrations was obviously higher than the control untreated with compounds while being lower than the positive control was expressed as +; the sum was equivalent to the positive control was expressed as ++; the sum was higher than the positive control was expressed as +++. As to conditions: activity intensity: sum of activity values (increment in insulin-positive cell rate) at 2 μM and 10 μM compared with positive control (compound of Synthesis Example 1). From the text: The evaluation system of the effect (efficacy) to promote differentiation from human iPS cells into insulin-producing cells was constructed with reference to known information (Non Patent Document 6). Further, the medium used in each differentiation stage was also produced with reference to known information (differentiation media A to E (Media A to E) described in Non Patent Document 6 were used respectively for stages 1 to 5; however, a medium free from GLP-1 receptor agonist and nicotinamide was used as differentiation medium E).
In order to evaluate the efficacy of each compound, the compound of Synthesis Example 1 was used as a positive control, and dimethylsulfoxide (DMSO) (SIGMA, D2650) with a final concentration of 0.1% was used as a control untreated with compounds. Each compound was dissolved in DMSO, and two types of compound solutions were prepared so as to have final concentrations of 2 μM and 10 μM after the compound was added to the medium. In the following evaluation, the compound solutions were added to the medium to 0.1% that is the final concentration of DMSO.
First, induction from human iPS cell Toe strain (National Institutes of Biomedical Innovation, Health and Nutrition) into cells on day 7 of culture (2 days after replacement with differentiation medium C (cells in the differentiation process from FOXA2-positive primitive gut tube cells into PDX1-positive pancreatic progenitor cells)) was performed according to the method of Non Patent Document 6 for “inducing differentiation from human iPS cells into pancreatic β cells”, and the cells were collected and thereafter stored in liquid nitrogen using Bambanker (NIPPON Genetics Co, Ltd.) at 1×10^7 cells/mL/tube, to produce a cell stock for evaluation. The cell stock was dissolved at the start of the evaluation of efficacy, suspended in differentiation medium C for stage 3 (DMEM high glucose (Life technologies, 11965092), 0.25 μM SANT-1, 0.1 μM LDN193189 (Stemgent, 04-0074), 10 μM SB431542, 2 μM Retinoic acid (Stemgent, 04-0021), 1% B27 serum free supplement (Life technologies, 17504044) and thereafter seeded in a 96-well plate (Corning, #3340) coated with Synthemax II (Corning, #5656) at 1×10^5 cells/well. After culturing for 2 days, the medium was removed, and new differentiation medium C for stage 3 with the compound or only DMSO added was added thereto at 100 μL/well. After culturing for 2 days, the medium was removed, and new differentiation medium D for stage 4 (DMEM high glucose, 0.1 μM LDN193189, 5 μM TGF-β type I receptor kinase inhibitor II (Calbiochem 616452), 0.3 μM (−)-indolactam V (Enzo life science ALX-420-011-C300), 1% B27 serum free supplement) with the compound or only DMSO added was added thereto at 100 μL/well. After culturing for 2 to 3 days, the medium was removed, and new differentiation medium E for stage 5 (GLP-1 receptor agonist and nicotinamide-free; Knockout […] (Life technologies, 12660012), 1% B27 serum free supplement) with the compound or only DMSO added was added thereto at 200 μL/well. After culturing for 2 days, the medium was removed, and a 4% paraformaldehyde phosphorus acid buffer (Wako, 163-20145) was added thereto at 150 μL/well and left standing for 30 to 60 minutes at room temperature to fix the cells. A phosphorus acid buffer (PBS) (Takara, T9181) containing 1% Triton X-100 (Sigma, T8787) was left standing for 15 minutes at room temperature, then washed with PBS-T (Takara, T9183), and was blocked for 1 hour using 20% Blocking One (Nacalai tesque, Tokyo, Japan) diluted with PBS-T at room temperature. After the removal of Blocking One, guinea pig anti-insulin antibody (Abcam, ab7842) diluted 200-fold with 20% Blocking One was added thereto at 50 μL/well, followed by standing at 4° C. overnight. […]
Take `O=C1CCC(C(=O)Nc2ncc(-c3ccccc3)s2)n2cccc21` (centres unmarked) [Example 1]: the Activity result is listed as “++”.

As to `COC(=O)c1ccc(-c2cnc(NC(=O)C3CCC(=O)c4cccn43)s2)cc1` (centres unmarked) [Example 2], the Activity entry is reported as “++”.

Turning to `CN(C)C(=O)c1ccc(-c2cnc(NC(=O)C3CCC(=O)c4cccn43)s2)cc1` (centres unmarked) [Example 3], the Activity result is on record as “+”.

With `O=C1CCC(C(=O)Nc2ncc(-c3ccc4c(c3)OCO4)s2)n2cccc21` (centres unmarked) [Example 4], the Activity result is recorded as “++”.

As for `O=C(O)c1ccc(-c2cnc(NC(=O)C3CCC(=O)c4cccn43)s2)cc1` (centres unmarked) [Example 5], the Activity result is listed as “+”.

Take `NC(=O)c1ccc(-c2cnc(NC(=O)C3CCC(=O)c4cccn43)s2)cc1` (centres unmarked) [Example 6]: the Activity result is given as “+”.

Regarding `N#Cc1ccc(-c2cnc(NC(=O)C3CCC(=O)c4cccn43)s2)cc1` (centres unmarked) [Example 7], the Activity result is “+”.

Regarding `CN(C)C(=O)COc1ccc(-c2cnc(NC(=O)C3CCC(=O)c4cccn43)s2)cc1` (centres unmarked) [Example 8], the Activity entry was “++”.

As to `O=C1CCC(C(=O)Nc2ncc(-c3ccc(OC(F)(F)F)cc3)s2)n2cccc21` (centres unmarked) [Example 9], the Activity entry is given as “+++”.

Turning to `CC(C)(C)Oc1ccc(-c2cnc(NC(=O)C3CCC(=O)c4cccn43)s2)cc1` (centres unmarked) [Example 11], the Activity entry is given as “+++”.

As for `O=C1CCC(C(=O)Nc2ncc(-c3ccc(Cl)cc3)s2)n2cccc21` (centres unmarked) [Example 12], the Activity entry is given as “++”.

Turning to `O=C1CCC(C(=O)Nc2ncc(-c3cccc(Cl)c3)s2)n2cccc21` (centres unmarked) [Example 13], the Activity result is listed as “++”.

For the compound `O=C1CCC(C(=O)Nc2ncc(-c3ccccc3Cl)s2)n2cccc21` (centres unmarked) [Example 14], the Activity entry is “+”.

With `O=C1CCC(C(=O)Nc2ncc(-c3cccc(F)c3)s2)n2cccc21` (centres unmarked) [Example 15], the Activity entry was “+”.

Take `O=C1CCC(C(=O)Nc2ncc(-c3ccc(F)cc3)s2)n2cccc21` (centres unmarked) [Example 16]: the Activity result is reported as “++”.

In the case of `O=C1CCC(C(=O)Nc2ncc(-c3ccccc3F)s2)n2cccc21` (centres unmarked) [Example 17], the Activity entry is reported as “++”.

As to `Cc1ccc(-c2cnc(NC(=O)C3CCC(=O)c4cccn43)s2)cc1` (centres unmarked) [Example 18], the Activity entry was “++”.

For the compound `Cc1ccccc1-c1cnc(NC(=O)C2CCC(=O)c3cccn32)s1` (centres unmarked) [Example 19], the Activity result is “++”.

For `Cc1cccc(-c2cnc(NC(=O)C3CCC(=O)c4cccn43)s2)c1` (centres unmarked) [Example 20], the Activity result is “++”.

For `O=C1CCC(C(=O)Nc2ncc(-c3ccc(C(F)(F)F)cc3)s2)n2cccc21` (centres unmarked) [Example 21], the Activity result is recorded as “+++”.

As for `COc1ccccc1-c1ccc(-c2cnc(NC(=O)C3CCC(=O)c4cccn43)s2)cc1` (centres unmarked) [Example 22], the Activity result is “+++”.

Regarding `Cc1ccc(-c2ccc(-c3cnc(NC(=O)C4CCC(=O)c5cccn54)s3)cc2)cc1` (centres unmarked) [Example 23], the Activity result is listed as “+”.

Consider `O=C1CCC(C(=O)Nc2ncc(-c3ccc4ccccc4c3)s2)n2cccc21` (centres unmarked) [Example 24], for which the Activity entry is listed as “+”.

In the case of `O=C1CCC(C(=O)Nc2ncc(-c3cccc(OC(F)(F)F)c3)s2)n2cccc21` (centres unmarked) [Example 25], the Activity entry is on record as “+++”.

As to `COc1ccc(-c2cnc(NC(=O)C3CCC(=O)c4cccn43)s2)cc1` (centres unmarked) [Example 26], the Activity entry is listed as “++”.

For `COc1cccc(-c2cnc(NC(=O)C3CCC(=O)c4cccn43)s2)c1` (centres unmarked) [Example 27], the Activity entry is “++”.

Turning to `Cc1cc(OC(F)(F)F)ccc1-c1cnc(NC(=O)C2CCC(=O)c3cccn32)s1` (centres unmarked) [Example 28], the Activity entry is given as “+++”.

For the compound `Cc1cc(-c2cnc(NC(=O)C3CCC(=O)c4cccn43)s2)ccc1OC(F)(F)F` (centres unmarked) [Example 29], the Activity result is given as “+++”.

Regarding `O=C1CCC(C(=O)Nc2ncc(-c3ccc(OC(F)(F)F)c(Cl)c3)s2)n2cccc21` (centres unmarked) [Example 30], the Activity entry was “+++”.

For the compound `O=C1CCC(C(=O)Nc2ncc(-c3ccc(OC(F)(F)F)c(CO)c3)s2)n2cccc21` (centres unmarked) [Example 31], the Activity result is listed as “+”.

For the compound `O=C1CCC(C(=O)Nc2ncc(-c3ccc(OCc4ccccc4)cc3)s2)n2cccc21` (centres unmarked) [Example 32], the Activity result is given as “+++”.

Consider `CC(C)Oc1ccc(-c2cnc(NC(=O)C3CCC(=O)c4cccn43)s2)cc1` (centres unmarked) [Example 33], for which the Activity entry is listed as “+++”.

`Cc1nc(NC(=O)C2CCC(=O)c3cccn32)sc1-c1ccccc1` (centres unmarked) [Example 34]: the Activity result is reported as “++”.

In the case of `Cc1nc(NC(=O)C2CCC(=O)c3cccn32)sc1-c1ccc(OC(C)(C)C)cc1` (centres unmarked) [Example 35], the Activity entry is “+++”.

For `Cc1nc(NC(=O)C2CCC(=O)c3cccn32)sc1-c1ccc(OC(F)(F)F)cc1` (centres unmarked) [Example 36], the Activity result is “+++”.

Consider `O=C1CCC(C(=O)Nc2ncc(-c3ccc(CO)cc3)s2)n2cccc21` (centres unmarked) [Example 37], for which the Activity result was “+”.

`COCCOc1ccc(-c2cnc(NC(=O)C3CCC(=O)c4cccn43)s2)cc1` (centres unmarked) [Example 38]: the Activity entry was “+++”.

With `O=C1CCC(C(=O)Nc2ncc(-c3ccc(OC(F)F)cc3)s2)n2cccc21` (centres unmarked) [Example 39], the Activity result is “+++”.

As to `O=C1CCC(C(=O)Nc2ncc(-c3ccc4c(c3)OC(F)(F)O4)s2)n2cccc21` (centres unmarked) [Example 40], the Activity result was “+++”.

As to `O=C1CCC(C(=O)Nc2ncc(-c3ccc(N4CCOCC4)cc3)s2)n2cccc21` (centres unmarked) [Example 41], the Activity entry is given as “+”.

As for `CN(C)S(=O)(=O)c1ccc(-c2cnc(NC(=O)C3CCC(=O)c4cccn43)s2)cc1` (centres unmarked) [Example 42], the Activity entry is given as “+”.

`O=C1CCC(C(=O)Nc2ncc(-c3ccc(OCc4ccccc4)c(F)c3)s2)n2cccc21` (centres unmarked) [Example 43]: the Activity entry is listed as “+++”.

In the case of `O=C1CCC(C(=O)Nc2ncc(-c3ccc(OCc4ccccc4)cc3F)s2)n2cccc21` (centres unmarked) [Example 44], the Activity result is “+”.

Take `O=C1CCC(C(=O)Nc2ncc(-c3ccc(OCC(F)(F)F)cc3)s2)n2cccc21` (centres unmarked) [Example 45]: the Activity result is recorded as “+++”.

As to `O=C1CCC(C(=O)Nc2ncc(-c3ccc(Oc4ccccc4)cc3)s2)n2cccc21` (centres unmarked) [Example 46], the Activity entry is “+++”.

`O=C1CCC(C(=O)Nc2ncc(-c3ccc(Br)cc3)s2)n2cccc21` (centres unmarked) [Example 47]: the Activity result is on record as “++”.

Take `CC(C)(C)OC(=O)Oc1ccc(-c2cnc(NC(=O)C3CCC(=O)c4cccn43)s2)cc1` (centres unmarked) [Example 48]: the Activity entry was “+”.

For `CC(C)COc1ccc(-c2cnc(NC(=O)C3CCC(=O)c4cccn43)s2)cc1` (centres unmarked) [Example 49], the Activity result is reported as “+++”.

On to `O=C1CCC(C(=O)Nc2ncc(C3=CCCCC3)s2)n2cccc21` (centres unmarked) [Example 50], for which the Activity result is “+”.

For the compound `CC(C)(C)OC(=O)N1CC=C(c2cnc(NC(=O)C3CCC(=O)c4cccn43)s2)CC1` (centres unmarked) [Example 51], the Activity result is listed as “+++”.

On to `CC(C)COc1ncc(-c2cnc(NC(=O)C3CCC(=O)c4cccn43)s2)cc1Cl` (centres unmarked) [Example 52], for which the Activity result was “+++”.

For `CC(C)(C)OC(=O)N1CC=C(c2cnc(NC(=O)C3CCC(=O)c4cccn43)s2)C1` (centres unmarked) [Example 53], the Activity entry is given as “++”.

Consider `Cc1ccc(-c2cnc(NC(=O)C3CCC(=O)c4cccn43)s2)o1` (centres unmarked) [Example 54], for which the Activity entry is given as “+”.

As to `Cc1nc(C)c(-c2cnc(NC(=O)C3CCC(=O)c4cccn43)s2)s1` (centres unmarked) [Example 55], the Activity result is “+”.

On to `O=C1CCC(C(=O)Nc2ncc(-c3ccc(Cl)s3)s2)n2cccc21` (centres unmarked) [Example 56], for which the Activity result is recorded as “++”.

Regarding `CC(=O)c1ccc(-c2cnc(NC(=O)C3CCC(=O)c4cccn43)s2)cc1` (centres unmarked) [Example 57], the Activity result was “+”.
